Measurements: patent US7342018B2, “Urokinase inhibitors and uses thereof” (Wilex AG, priority 1998, dated 2008)

Columns and labels:
Urokinase (sc-urokinase) = target: T1, Urokinase (sc-urokinase) (Homo sapiens, UniProt P00749); test: In vitro inhibition of urokinase (chromogenic substrate, Dixon Ki); assay type: biochemical; settings: in vitro inhibition of urokinase, 25° C, pH 8.0, 5% ethanol; read-out: Ki
T1 construct: purchased Ribosepharm GmbH, Haan, Germany
Protocol: To determine the inhibitory activity, 200 μl of Tris buffer (0.05 mol/l, containing the inhibitor, 0.154 mol/l NaCl, 5% ethanol pH 8.0), 25 μl of substrate (Pefachrome UK or Bz-βAla-Gly-Arg-pNA in H2O; Pentapharm Ltd., Basle, Switzerland) and 50 μl of sc-urokinase (Ribosepharm GmbH, Haan, Germany) were incubated at 25° C. After 3 min the reaction was stopped by adding 25 μl of acetic acid (50%), and the absorption at 405 nm was determined by means of a Microplate Reader (MR 5000, Dynatech, Denkendorf, Germany). Ki values were determined according to Dixon by linear regression using a computer program. The Ki values are the mean values of at least three determinations with a standard deviation of less than 25%.

[1] = tested on: BN-472 rat mammary carcinoma; test: BN-472 rat mammary carcinoma model, single agent and combination with cytotoxics (Example 11); settings: for anti-tumor effects (tumor size development, final tumor weight): once weekly administration i.v.
Protocol: WX-UK1 was dissolved in 5% w/v of D-mannitol to the appropriate dosage and administered once daily or twice weekly either subcutaneously (s.c.) or intraperitonally (i.p.).
Epirubicin (0.75-3 mg/kg body wight), paclitaxel (5-7.5 mg/kg) or 5-FU (20 and 40 mg/kg) was given once weekly by i.v. injection into the external jugular vein.
Control rats received the vehicle 5% w/v of D-mannitol once daily s.c.
A donor rat bearing a tumor of 20×20 mm was sacrificed, the tumor harvested ant the cortex part was sliced into cubes of approximately 10 mm^3 and the transplated orthotopically under the mammary fad pads of female Brown Norway rats.
Treatment was started three or six days (5-FU experiment) after tumor inoculation. Each treatment group consisted of 15 to 21 rats.
Tumor load is plotted as the average±standard error of the mean (SEM).
Tumor, organ weights as well as lung foci counts are presented in Box-Whisker graphs. […] Whiskers extend to the extreme lower 5th and upper 95th percentiles of values. Dots represent individual data.
P-values represent significance levels of pairwise comparisons of treatment groups versus vehicle control. For combination therapy experiments the P-values for the comparison of a cytostatic mono-therapy versus the combination therapy is given.

Ki (Urokinase (sc-urokinase)) [nM] | SMILES | anti-tumor effects (tumor size development, final tumor weight) [1] | thymus atrophy ([1]; rat, in vivo)
960 | CCOC(=O)N1CCN(C(=O)C(Cc2cccc(C(=N)N)c2)NS(=O)(=O)c2c(C(C)C)cc(C(C)C)cc2C(C)C)CC1.Cl (centres unmarked) [D,L, Nα-(2,4,6-triisopropylphenylsulfonyl)-3-amidino-(D,L)-phenylalanine 4-ethoxycarbonylpiperazide hydrochloride] | – | –
– | O=c1[nH]cc(F)c(=O)[nH]1 [Example 5-FU, 5-fluorouracil, reference compound] | Dose-dependent anti-tumor effects | –
– | COc1cccc2c1C(=O)c1c(O)c3c(c(O)c1C2=O)C[C@@](O)(C(=O)CO)C[C@@H]3O[C@H]1C[C@H](N)[C@@H](O)[C@H](C)O1 [epirubicin, reference compound] | Dose-dependent anti-tumor effects | thymus atrophy
– | CC(=O)O[C@H]1C(=O)[C@@]2(C)[C@H]([C@H](OC(=O)c3ccccc3)[C@]3(O)C[C@H](OC(=O)[C@H](O)[C@@H](NC(=O)c4ccccc4)c4ccccc4)C(C)=C1C3(C)C)[C@]1(OC(C)=O)CO[C@@H]1C[C@@H]2O [paclitaxel, reference compound] | Dose-dependent anti-tumor effects | –
